Measurements reported in US8865913B2, “Crystalline forms and processes for their preparation” (BIAL-Portela & C.A., S.A, priority 2010, dated 2014).

Assays:
Format in all cases: physicochemical
[1] = X-ray powder diffraction (XRPD)
Method: 3. X-ray Powder Diffraction (XRPD)
Selected XRPD patterns were collected with an Inel XRG-3000 diffractometer. An incident beam of Cu Kα radiation was produced using a fine-focus tube and a parabolically graded multilayer mirror. Prior to the analysis, a silicon standard (NIST SRM 640c) was analyzed to verify the Si 111 peak position. A specimen of the sample was packed into a thin-walled glass capillary, and a beam-stop was used to minimize the background from air. Diffraction patterns were collected in transmission geometry using Windif v. 6.6 software and a curved position-sensitive Equinox detector with a […] of 120°.
Selected XRPD patterns were collected using a Bruker D8 DISCOVER diffractometer and Bruker's General Area-Detector Diffraction System (GADDS, v. 4.1.20). An incident microbeam of Cu Kα radiation was produced using a long, fine-focus tube (40 kV, 40 mA), a parabolically graded multilayer mirror, and a 0.5 mm double-pinhole collimator. Prior to the analysis, a silicon standard (NIST SRM 640c) was analyzed to verify the Si 111 peak position. […]
XRPD patterns for microplate samples were collected using a Bruker D8 DISCOVER diffractometer and Bruker's General Area-Detector Diffraction System (GADDS, v. 4.1.20). […] Prior to the analysis, a silicon standard (NIST SRM 640c) was analyzed to verify the Si 111 peak position. […]

[2] = Thermogravimetric analysis (TGA); settings: sample no. 79
Method: 4. Thermogravimetric Analysis (TGA)
TG analyses were performed using a TA Instruments 2950 and Q5000 thermogravimetric analyzer. Temperature calibration was performed using nickel and Alumel™. Each sample was placed in an aluminum pan and inserted into the TG furnace. The furnace was heated under a nitrogen purge.
The method code for the thermogram (shown by the list of Figures in the “Brief Description of the Figures” section above) is an abbreviation for the start and end temperature as well as the heating rate; e.g., 25-350-10 means “from 25° C. to 350° C., at 10° C./min”.

[3] = Correlated thermogravimetric-infrared analysis (TG-IR); settings: sample no. 79
Method: 5. Correlated Thermogravimetric—Infrared Analysis (TG-IR)
Thermogravimetric infrared (TG-IR) analysis was performed on a TA Instruments thermogravimetric (TG) analyzer model 2050 interfaced to a Magna-IR 560® Fourier transform infrared (FT-IR) spectrophotometer (Thermo Nicolet) equipped with an Ever-Glo mid/far IR source, a potassium bromide (KBr) beamsplitter, and a mercury cadmium telluride (MCT-A) detector. The FT-IR wavelength verification was performed using polystyrene, and the TG calibration standards were nickel and Alumel™. The sample was placed in a platinum sample pan, and the pan was inserted into the TG furnace. The TG instrument was started first, immediately followed by the FT-IR instrument. The TG instrument was operated under a flow of helium at 90 and 10 cc/min. for the purge and balance, respectively. The furnace was heated under […] at a rate of 20° C./minute to a final temperature of 250° C. IR spectra were collected approximately every 32 seconds for approximately 13 minutes. Each IR spectrum represents 32 co-added scans collected at a spectral resolution of 4 cm^−1. Volatiles were identified from a search of the High Resolution Nicolet Vapor Phase spectral library.

Q: What does the source list for Fc1cc(F)c2c(c1)C[C@@H](n1c(CCNCc3ccccc3)c[nH]c1=S)CO2 [Form B, 1-[(3R)-6,8-difluoro-3,4-dihydro-2H-1-benzopyran-3-yl]-1,3-dihydro-5-[2-[(phenylmethyl)amino]ethyl]-2H-imidazole-2-thione]?
A: XRPD result ([1]; sample no. 48 (crystallized from tetrahydrofuran/ethyl acetate)): Crystalline consistent with Form B of compound 2; XRPD result ([1]; sample no. 79 (organic vapor stress of amorphous material in ethyl acetate)): Crystalline consistent with Form B of compound 2; TGA sharp weight loss (onset) [2]: Sharp weight loss at ~254 °C (onset); TGA weight loss ([2]; between ~138° C. and ~190° C.): ~4.7 wt % loss between ~138 °C and ~190 °C; TG-IR (IR) identification of volatile [3]: (IR): Consistent with loss of ethyl acetate.
